For 10 compounds, IC50 results are on record in US10414775B2 (Merck Sharp & Dohme Corp., priority 2016, dated 2019).

The target of this data set is T1, Human CYP8B1 (Homo sapiens, UniProt Q9UNU6).
T1 construct: tissue Xenotech; host or cells: human liver microsomes
T1 sequence (Q9UNU6 1-501): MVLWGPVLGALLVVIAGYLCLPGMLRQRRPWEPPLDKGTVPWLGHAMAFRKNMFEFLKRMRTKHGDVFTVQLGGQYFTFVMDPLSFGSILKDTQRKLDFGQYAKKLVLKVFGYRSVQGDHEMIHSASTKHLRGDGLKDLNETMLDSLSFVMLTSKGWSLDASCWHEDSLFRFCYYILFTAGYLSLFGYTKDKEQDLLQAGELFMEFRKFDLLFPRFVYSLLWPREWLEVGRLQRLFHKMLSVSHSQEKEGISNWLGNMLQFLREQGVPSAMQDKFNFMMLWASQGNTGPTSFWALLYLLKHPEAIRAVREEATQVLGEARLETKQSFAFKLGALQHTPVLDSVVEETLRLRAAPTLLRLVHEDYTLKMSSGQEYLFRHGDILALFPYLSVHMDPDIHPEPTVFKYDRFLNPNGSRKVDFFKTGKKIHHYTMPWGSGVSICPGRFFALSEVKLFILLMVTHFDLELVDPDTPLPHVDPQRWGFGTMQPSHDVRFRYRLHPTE
Put plainly: Human Cyp8B1 Liver Microsome Assay. The data set is classed as biochemical. The note with it: human liver microsomes; substrate 7α-hydroxy-4-cholesten-3-one, NADPH; 30 min pre-incubation, 45 min reaction; RapidFire MS readout. A digest of the protocol:
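Human liver microsomes (65 μg/ml, 0.1 M phosphate pH 7.4) preincubated 30 min at room temperature with inhibitor (1.25% DMSO final), then reacted 45 min with 7α-hydroxy-4-cholesten-3-one and NADPH. 7α,12α-dihydroxy product quantified by RapidFire ESI+ MRM against d7 internal standard; IC50 from four-parameter logistic fit.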
For orientation: Liver microsomes are a subcellular fraction often used to study metabolism.

SMILES strings stand for the structures. Counter-ions that a name gives are not always drawn.

Turning to `C[C@@H]1CN(c2c(Cl)cnc3cc(OC(F)(F)F)ccc23)CC[C@@H]1C(=O)N1CCn2c(nnc2C(F)(F)F)C1` [Example 36, {(3S,4S)-1-[3-chloro-7-(trifluoromethoxy)quinolin-4-yl]-3-methylpiperidin-4-yl}[3-(trifluoromethyl)-5,6-dihydro[1,2,4]triazolo[4,3-a]pyrazin-7(8H)-yl]methanone], half-maximal inhibition (IC50) was put at 0.35 nM.

With `COc1cnc2c(N3CC[C@H](C(=O)N4CCn5c(nnc5C(F)(F)F)C4)[C@H](C)C3)ccnc2c1` [Example 25, [(3S,4S)-1-(7-methoxy-1,5-naphthyridin-4-yl)-3-methylpiperidin-4-yl][3-(trifluoromethyl)-5,6-dihydro[1,2,4]tria-zolo[4,3-a]pyrazin-7(8H)-yl]methanone], inhibition was half-maximal at 307 nM (IC50).

In the case of `C[C@@H]1CN(c2ccnc3cc(C#N)ccc23)CC[C@@H]1C(=O)N1CCn2c(nnc2C(F)(F)F)C1` [Example 24, 4-[(3S,4S)-3-methyl-4-{[3-(trifluoromethyl)-5,6-dihydro[1,2,4]tria-zolo[4,3-a]pyrazin-7(8H)-yl]carbonyl}piper-idin-1-yl]quinoline-7-carbonitrile], the IC50 (commonly the point on the concentration scale where inhibition reaches its midpoint) was found to be 8.4 nM.

In turn, `Cc1cc(N2CC[C@H](C(=O)N3CCn4c(nnc4C(F)(F)F)C3)[C@H](C)C2)c2cc(Cl)ccc2n1` [Example 13, [(3S,4S)-1-(6-chloro-2-methylquinolin-4-yl)-3-methylpiperidin-4-yl][3-(trifluoromethyl)-5,6-dihydro[1,2,4]tria-zolo[4,3-a]pyrazin-7(8H)-yl]methanone] yielded an IC50 of 3040 nM.

As for `C[C@@H]1CN(c2c(F)cnc3cc(Cl)ccc23)CC[C@@H]1C(=O)N1CCn2c(nnc2C(F)(F)F)C1` [Example 48, [(3S,4S)-1-(7-chloro-3-fluoroquinolin-4-yl)-3-methylpiperidin-4-yl][3-(trifluoromethyl)-5,6-dihydro[1,2,4]triazolo[4,3-a]pyrazin-7(8H)-yl]methanone], the IC50 worked out at 1.7 nM.

`C[C@@H]1CN(c2c(Cl)cnc3cc([C@@H](C)O)ccc23)CC[C@@H]1C(=O)N1CCn2c(nnc2C(F)(F)F)C1` (single isomer, unassigned) [Example 44b] came in with an IC50 of 1.2 nM.

`C[C@@H]1CN(c2ccnc3nc(C(F)(F)F)ccc23)CC[C@@H]1C(=O)N1CCn2c(nnc2C(F)(F)F)C1` [Example 31, {(3S,4S)-3-methyl-1-[7-(trifluoromethyl)-1,8-naphthyridin-4-yl]piperidin-4-yl}[3-(trifluoromethyl)-5,6-dihydro[1,2,4]tria-zolo[4,3-a]pyrazin-7(8H)-yl]methanone]: half-maximal inhibition (IC50) required 2700 nM.

In turn, `Cc1cc(N2CC[C@H](C(=O)N3CCn4c(nnc4C(F)(F)F)C3)[C@H](C)C2)c2ccc(F)c(F)c2n1` [Example 18, 7,8-difluoro-2-methyl-4-[(3S,4S)-3-methyl-4-{[3-(trifluoromethyl)-5,6-dihydro[1,2,4]tria-zolo[4,3-a]pyrazin-7(8H)-yl]carbonyl}piper-idin-1-yl]quinolinium trifluoroacetate] came in with an IC50 of 385 nM.

In turn, `C[C@@H]1CN(c2c(Cl)cnc3c2CCN(CC(F)(F)F)C3)CC[C@@H]1C(=O)N1CCn2c(nnc2C(F)(F)F)C1` [Example 60, ((3S,4S)-1-(3-chloro-7-(2,2,2-trifluoroethyl)-5,6,7,8-tetrahydro-1,7-naphthyridin-4-yl)-3-methylpiperidin-4-yl)(3-(trifluoromethyl)-5,6-dihydro-[1,2,4]triazolo[4,3-a]pyrazin-7(8H)-yl)methanone] registered an IC50 of 0.8 nM.

`COc1cnc2c(N3CC[C@H](C(=O)N4CCn5c(nnc5C(F)(F)F)C4)[C@H](C)C3)c(Cl)cnc2c1` [Example 8, ((3S,4S)-1-(3-chloro-7-methoxy-1,5-naphthyridin-4-yl)-3-methylpiperidin-4-yl)(3-(trifluoromethyl)-5,6-dihydro-[1,2,4]triazolo[4,3-a]pyrazin-7(8H)-yl)methanone] returned an IC50 of 1.2 nM.
